Several values for one entry are separate records, joined by “and”; a condition that tells them apart may be missing. Equal values may be shown once.
How the values were obtained:
[1] = Particle size and polydispersity index (PDI) of lipid nanoparticles by dynamic light scattering; assay type: physicochemical; details: LNP formulation prepared from the cationic lipid, 25° C.
Description: The particle size and polydispersity index (PDI) were determined by dynamic light scattering using Malvern laser particle size analyzer.
10 μL of the liposome solution was weighed, diluted to 1 mL with RNase-free deionized water, and added to the sample pool. Each sample was measured in triplicate. The measurement conditions were: […] scattering angle, and 25° C.

293T cells [2] = assay: Fluorescent detection of Fluc-mRNA (cell transfection efficiency of LNP formulations); assay type: cell-based
Outline: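 Transfection read-out: IVIS imaging after […], 24 h after adding LNPs (lipid molar ratio 49:10:39.5:1.5 cationic/neutral/structured/polymer-lipid; […] Fluc-mRNA). Adherent 293T cells were seeded overnight at 10,000 per well beforehand.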

293T cells [3] = assay: Cell survival rate determination (CCK-8); assay type: cell-based
Outline: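 Readout was CCK-8 absorbance (450 nm, 1 h) taken after a 24 h exposure of overnight-adhered 293T cells (10,000 per well, 96-well) to Lipofectamine 3000 or to LNPs carrying Fluc-mRNA, lipid molar ratio 49:10:39.5:1.5 cationic/neutral/structured/polymer-conjugated.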

female BALB/C mice = assay: Live imaging in mice: protein expression of Fluc-mRNA delivered by LNP formulations; assay type: in vivo; details: for average radiation intensity, times that of ALC-0315: comparator ALC-0315; for average radiation intensity, times that of HHMA: comparator HHMA; for average radiation intensity, times that of SM-102: comparator SM-102; for expression of mRNA in mice, times that of YK-302: comparator YK-302; for expression amount, times that of YK-309: comparator YK-309; for expression amount, times that of YK-313: comparator YK-313; for expression amount, times that of YK-321: comparator YK-321; for average radiation intensity, times that of compound 21: comparator compound 21; for average radiation intensity, times that of compound 23: comparator compound 23
Outline: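 Female BALB/C mice (4-6 weeks, 17-19 g) received LNP-formulated Fluc-mRNA […] intramuscularly. At 6 h, 24 h, 48 h and 7 d, luciferase substrate given intraperitoneally, and after 5 min average radiance measured by IVIS whole-body imaging.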

liver = assay: Distribution of liposomes in mice: protein expression in the liver (live imaging); assay type: in vivo; details: at 6 h
Description: The LNP formulation containing […] Fluc-mRNA was injected intramuscularly into female BALB/C mice aged 4 to 6 weeks old and weighed 17 to 19 g, and the mice were intraperitoneally injected with fluorescent imaging substrate at specific time points after administration (6 h, 24 h, 48 h and 7 d), where the mice were free to move for 5 minutes, and then the average radiation intensity (corresponding to fluorescence expression intensity) of the protein expression of the mRNA carried by the LNP in the mice was detected by the IVIS Spectrum small animal live imaging device.
At 24 h, the LNP formulations prepared from all compounds had been metabolized in the liver and had no protein expression.

SMILES: CCCCCCCCC(CCCCCCCC)COC(=O)CCCCCN(CCCCCC(=O)OCC(CCCCCCCC)CCCCCCCC)C[C@H](O)CN(C)CCO [YK-305, (R)-Bis(2-octyldecyl)-6,6′-((2-hydroxy-3-((2-hydroxyethyl)(methyl)amino)propyl)azanediyl)dihexanoate]
- PDI (%) [1]: 10.7%
- Particle size (nm) [1]: 191 nm
- Relative light unit (RLU) (293T cells [2]; LNP formulation of Fluc-mRNA, 96-well plate, 24 hours): 27408734 RLU
- Multiples (YK-305) (293T cells [2]; RLU of YK-305 / RLU of the lipid of the line): 1.00
- Multiples (YK-310) (293T cells [2]; RLU of YK-310 / RLU of the lipid of the line): 0.94
- Multiples (YK-312) (293T cells [2]; RLU of YK-312 / RLU of the lipid of the line): 0.74
- Multiples (YK-318) (293T cells [2]; RLU of YK-318 / RLU of the lipid of the line, Tables 5, 7, 11): 0.41
- Multiples (YK-319) (293T cells [2]; RLU of YK-319 / RLU of the lipid of the line, Tables 5, 7, 11): 0.89
- Ratio relative to SM-102 (293T cells [2]; RLU of the lipid / RLU of SM-102, times that of SM-102): 17.09
- cell transfection efficiency, times that of ALC-0315 (293T cells [2]; comparator ALC-0315): 13.48 times
- cell transfection efficiency, times that of HHMA (293T cells [2]; comparator HHMA): 13.66 times
- cell transfection efficiency, times that of Lipofectamine 3000 (293T cells [2]; comparator Lipofectamine 3000): 23.12 times
- cell transfection efficiency, times that of YK-009 (293T cells [2]; comparator YK-009): 5.35 times
- cell transfection efficiency, times that of YK-301 (293T cells [2]; comparator YK-301): 32.53 times
- cell transfection efficiency, times that of YK-303 (293T cells [2]; comparator YK-303): 43.76 times
- cell transfection efficiency, times that of YK-306 (293T cells [2]; comparator YK-306): 12.47 times
- cell transfection efficiency, times that of YK-307 (293T cells [2]; comparator YK-307): 6.01 times
- cell transfection efficiency, times that of YK-308 (293T cells [2]; comparator YK-308): 5.44 times
- cell transfection efficiency, times that of YK-309 (293T cells [2]; comparator YK-309): ~210 times and 218.62 times and ~200 times
- cell transfection efficiency, times that of YK-311 (293T cells [2]; comparator YK-311): 13.96 times
- cell transfection efficiency, times that of YK-313 (293T cells [2]; comparator YK-313): 31.63 times
- cell transfection efficiency, times that of YK-314 (293T cells [2]; comparator YK-314): 50.07 times
- cell transfection efficiency, times that of YK-315 (293T cells [2]; comparator YK-315): 17.27 times
- cell transfection efficiency, times that of YK-316 (293T cells [2]; comparator YK-316): 5.70 times
- cell transfection efficiency, times that of YK-317 (293T cells [2]; comparator YK-317): 7.60 times
- cell transfection efficiency, times that of YK-320 (293T cells [2]; comparator YK-320): 10.14 times
- cell transfection efficiency, times that of YK-321 (293T cells [2]; comparator YK-321): 19.53 times and ~20 times
- cell transfection efficiency, times that of compound 21 (293T cells [2]; comparator compound 21): 19.14 times
- cell transfection efficiency, times that of compound 23 (293T cells [2]; comparator compound 23): 20.21 times
- Cell survival rate (%) (293T cells [3]; LNP formulation of Fluc-mRNA, 24 hours, CCK-8): 82.18%
- cell survival rate higher than ALC-0315 (293T cells [3]; difference of survival rates, comparator ALC-0315): 31.15% and ~30%
- cell survival rate higher than HHMA (293T cells [3]; difference of survival rates, comparator HHMA): 15.71% and ~15%
- cell survival rate higher than Lipofectamine 3000 (293T cells [3]; difference of survival rates, comparator Lipofectamine 3000): 57.17%
- cell survival rate higher than SM-102 (293T cells [3]; difference of survival rates, comparator SM-102): 12.73% and ~12%
- cell survival rate higher than YK-301 (293T cells [3]; difference of survival rates, comparator YK-301): 29.22%
- cell survival rate higher than YK-302 (293T cells [3]; difference of survival rates, comparator YK-302): 65.75% and ~65% and ~50%
- cell survival rate higher than YK-303 (293T cells [3]; difference of survival rates, comparator YK-303): 18.86%
- cell survival rate higher than YK-304 (293T cells [3]; difference of survival rates, comparator YK-304): 48.02%
- cell survival rate higher than YK-306 (293T cells [3]; difference of survival rates, comparator YK-306): 39.99%
- cell survival rate higher than YK-307 (293T cells [3]; difference of survival rates, comparator YK-307): 21.04%
- cell survival rate higher than YK-308 (293T cells [3]; difference of survival rates, comparator YK-308): 11.19%
- cell survival rate higher than YK-309 (293T cells [3]; difference of survival rates, comparator YK-309): 50.57%
- cell survival rate higher than YK-311 (293T cells [3]; difference of survival rates, comparator YK-311): 12.12%
- cell survival rate higher than YK-313 (293T cells [3]; difference of survival rates, comparator YK-313): 13.25%
- cell survival rate higher than YK-314 (293T cells [3]; difference of survival rates, comparator YK-314): 14.30%
- cell survival rate higher than YK-315 (293T cells [3]; difference of survival rates, comparator YK-315): 10.90%
- cell survival rate higher than YK-316 (293T cells [3]; difference of survival rates, comparator YK-316): 11.65%
- cell survival rate higher than YK-317 (293T cells [3]; difference of survival rates, comparator YK-317): 23.00% and ~20%
- cell survival rate higher than YK-320 (293T cells [3]; difference of survival rates, comparator YK-320): 11.110%
- cell survival rate higher than YK-321 (293T cells [3]; difference of survival rates, comparator YK-321): 9.84%
- cell survival rate higher than compound 21 (293T cells [3]; difference of survival rates, comparator compound 21): 11.97%
- cell survival rate higher than compound 23 (293T cells [3]; difference of survival rates, comparator compound 23): 10.68%
- average radiation intensity, times that of ALC-0315 (female BALB/C mice; 6 h): 10.70 times
- average radiation intensity, times that of HHMA (female BALB/C mice; 6 h): 14.19 times
- average radiation intensity, times that of SM-102 (female BALB/C mice; 6 h): 13.18 times
- expression of mRNA in mice, times that of YK-302 (female BALB/C mice; 6 h): 633.70 times
- expression amount, times that of YK-309 (female BALB/C mice; 6 h): 140.67 times
- expression amount, times that of YK-313 (female BALB/C mice; 6 h): 20.89 times
- expression amount, times that of YK-321 (female BALB/C mice; 6 h): 17.92 times
- average radiation intensity, times that of compound 21 (female BALB/C mice; 6 h): 15.14 times
- average radiation intensity, times that of compound 23 (female BALB/C mice; 6 h): 15.68 times
- average radiation intensity (female BALB/C mice; 6 h after intramuscular injection): 9239340
- average radiation intensity, times that of ALC-0315 (female BALB/C mice; 24 h): 14.82 times
- average radiation intensity, times that of HHMA (female BALB/C mice; 24 h): 23.54 times
- average radiation intensity, times that of SM-102 (female BALB/C mice; 24 h): 23.44 times
- expression of mRNA in mice, times that of YK-302 (female BALB/C mice; 24 h): 713.70 times
- expression amount, times that of YK-309 (female BALB/C mice; 24 h): 167.86 times
- expression amount, times that of YK-313 (female BALB/C mice; 24 h): 27.04 times
- expression amount, times that of YK-321 (female BALB/C mice; 24 h): 27.89 times
- average radiation intensity, times that of compound 21 (female BALB/C mice; 24 h): 25.70 times
- average radiation intensity, times that of compound 23 (female BALB/C mice; 24 h): 27.01 times
- average radiation intensity (female BALB/C mice; 24 h after intramuscular injection): 2823400
- average radiation intensity, times that of ALC-0315 (female BALB/C mice; 48 h): 26.32 times
- average radiation intensity, times that of HHMA (female BALB/C mice; 48 h): 32.18 times
- average radiation intensity, times that of SM-102 (female BALB/C mice; 48 h): 32.19 times
- expression amount, times that of YK-309 (female BALB/C mice; 48 h): 159.93 times and ~160 times
- expression amount, times that of YK-313 (female BALB/C mice; 48 h): 40.99 times
- expression amount, times that of YK-321 (female BALB/C mice; 48 h): 28.65 times
- average radiation intensity, times that of compound 21 (female BALB/C mice; 48 h): 33.82 times
- average radiation intensity, times that of compound 23 (female BALB/C mice; 48 h): 31.63 times
- average radiation intensity (female BALB/C mice; 48 h after intramuscular injection): 1047720
- average radiation intensity, times that of ALC-0315 (female BALB/C mice; 7 d): 18.02 times
- average radiation intensity, times that of HHMA (female BALB/C mice; 7 d): 21.63 times
- average radiation intensity, times that of SM-102 (female BALB/C mice; 7 d): 19.18 times
- expression amount, times that of YK-309 (female BALB/C mice; 7 d): 101.13 times and ~100 times
- expression amount, times that of YK-313 (female BALB/C mice; 7 d): 39.26 times
- expression amount, times that of YK-321 (female BALB/C mice; 7 d): 19.29 times
- average radiation intensity, times that of compound 21 (female BALB/C mice; 7 d): 19.71 times
- average radiation intensity, times that of compound 23 (female BALB/C mice; 7 d): 20.35 times
- average radiation intensity (female BALB/C mice; 7 d after intramuscular injection): 127015
- expression amount in the liver compared with ALC-0315 and SM-102 (liver): reduced
- protein expression in the liver (liver; intramuscular injection): had protein expression in the liver

Reference: patent US20260007613A1, “LONG-ACTING LOW-TOXICITY NOVEL CATIONIC LIPID COMPOUNDS AND COMPOSITION THEREOF” (BEIJING YOUCAREKECHUANG PHARMACEUTICAL TECHNOLOGY CO., LTD., priority 2023, published 2026)
